± gives the standard deviation of the averaged measurements.
Test system: VA-ES-BJ
Assay: relative viability vs DMSO control (72 h) (fraction); higher = more viable cells
Method in brief: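 Sarcoma cell lines were seeded in 384-well plates at densities chosen for 80–90% confluence, then 24 h later given 2.5 µl of serially diluted compound drawn from source plates spanning 10 mM to 0.0002 mM. They were held 72 h at 37 °C, 5% CO2, with 0.1% DMSO vehicle and a 5 µM positive control included. Relative viability was read with ATPLite as percent growth and averaged over up to triplicate wells. Rescaling placed full at 1 and none at 0.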

Compound	relative viability (0.00017 µM)	relative viability (0.00051 µM)	relative viability (0.00152 µM)	relative viability (0.00457 µM)	relative viability (0.01372 µM)	relative viability (0.04115 µM)	relative viability (0.1235 µM)	relative viability (0.3704 µM)	relative viability (1.111 µM)	relative viability (3.333 µM)	relative viability (10 µM)
C=CC(=O)N1CCC[C@@H](n2nc(-c3ccc(Oc4ccccc4)cc3)c3c(N)ncnc32)C1 [Ibrutinib]	1.09 ± 0.046	1.08 ± 0.035	1.08 ± 0.089	1.06 ± 0.026	1.08 ± 0.05	1.09 ± 0.044	1.07 ± 0.068	1.07 ± 0.092	1.13 ± 0.056	1.1 ± 0.036	0.989 ± 0.013
CC[C@H](Nc1ncnc2[nH]cnc12)c1nc2cccc(F)c2c(=O)n1-c1ccccc1 [Idelalisib]	1.12 ± 0.01	1.12 ± 0.052	1.09 ± 0.015	1.09 ± 0.071	1.06 ± 0.03	1.07 ± 0.041	1.05 ± 0.026	1.03 ± 0.053	0.931 ± 0.041	0.872 ± 0.035	0.705 ± 0.038
O=C(Cc1ccc(-c2ccc(OCCN3CCOCC3)cc2)cn1)NCc1ccccc1 [KX2-391]	1.09 ± 0.045	1.06 ± 0.043	1.06 ± 0.021	1.05 ± 0.044	0.96 ± 0.032	0.584 ± 0.026	0.385 ± 0.021	0.368 ± 0.021	0.314 ± 0.015	0.29 ± 0.017	0.309 ± 0.018
O=C(Nc1cnn2ccc(N3CCC[C@@H]3c3cc(F)ccc3F)nc12)N1CC[C@H](O)C1 [Larotrectinib]	1.05 ± 0.058	1.07 ± 0.037	1.04 ± 0.04	1.06 ± 0.044	1.04 ± 0.017	1.02 ± 0.046	1 ± 0.04	0.99 ± 0.022	1.02 ± 0.036	0.989 ± 0.043	0.994 ± 0.043
Cc1ccc(F)c(NC(=O)Nc2ccc(-c3cccc4[nH]nc(N)c34)cc2)c1 [Linifanib]	1.05 ± 0.022	1.07 ± 0.041	1.06 ± 0.03	1.07 ± 0.056	1.05 ± 0.025	1.08 ± 0.059	1.07 ± 0.046	1.06 ± 0.056	1.11 ± 0.063	1.11 ± 0.035	1.03 ± 0.047
C[C@]1(O)C[C@@H](c2nc(-c3ccc4ccc(-c5ccccc5)nc4c3)c3c(N)nccn32)C1 [Linsitinib]	1.08 ± 0.025	1.07 ± 0.04	1.05 ± 0.05	1.06 ± 0.011	1.01 ± 0.02	0.989 ± 0.021	0.987 ± 0.052	0.966 ± 0.042	0.937 ± 0.05	0.871 ± 0.11	0.74 ± 0.036
Cc1ccc(NC(=O)c2ccc(CN3CCN(C)CC3)cc2)cc1Nc1nc(-c2cccnc2)cs1 [Masitinib]	1.08 ± 0.016	1.078 ± 0.0055	1.05 ± 0.019	1.06 ± 0.033	1.08 ± 0.022	1.05 ± 0.013	1.02 ± 0.024	1.01 ± 0.038	0.897 ± 0.02	0.621 ± 0.016	0.177 ± 0.0072
CC1(C)CNc2cc(NC(=O)c3cccnc3NCc3ccncc3)ccc21 [Motesanib]	0.98 ± 0.021	0.982 ± 0.018	0.976 ± 0.041	1 ± 0.03	0.9877 ± 0.0081	1 ± 0.017	1.011 ± 0.0069	1.02 ± 0.022	1.04 ± 0.042	1.04 ± 0.024	1.03 ± 0.029
CC(C)N1CCN(Cc2cnc(-c3cc(-c4cccc5[nH]ccc45)cc4[nH]ncc34)o2)CC1 [Nemiralisib]	0.985 ± 0.032	0.987 ± 0.045	0.981 ± 0.047	1.01 ± 0.04	0.96 ± 0.026	0.965 ± 0.041	0.982 ± 0.038	0.9285 ± 0.0062	0.901 ± 0.049	0.811 ± 0.017	0.655 ± 0.038
C=CC(=O)Nc1cccc(Oc2nc(Nc3ccc(N4CCN(C)CC4)cc3)nc3ccsc23)c1 [Olmutinib]	1.01 ± 0.052	1.01 ± 0.029	1.01 ± 0.029	1.01 ± 0.027	1.02 ± 0.043	1 ± 0.039	0.996 ± 0.052	0.96 ± 0.065	0.905 ± 0.06	0.786 ± 0.038	0.534 ± 0.013
CC(C)(C)c1cc(NC(=O)Nc2ccc(-c3cn4c(n3)sc3cc(OCCN5CCOCC5)ccc34)cc2)no1 [Quizartinib]	1.06 ± 0.028	1.06 ± 0.038	1.05 ± 0.019	1.06 ± 0.032	1.05 ± 0.026	1.05 ± 0.038	1.02 ± 0.059	1.04 ± 0.03	1.02 ± 0.045	0.947 ± 0.022	0.831 ± 0.032
CNC(=O)c1cc(Oc2ccc(NC(=O)Nc3ccc(Cl)c(C(F)(F)F)c3)c(F)c2)ccn1 [Regorafenib]	1.13 ± 0.018	1.15 ± 0.032	1.1 ± 0.019	1.083 ± 0.0058	1.11 ± 0.035	1.08 ± 0.023	1.18 ± 0.048	1.19 ± 0.08	1.21 ± 0.072	1.24 ± 0.12	0.684 ± 0.048
CO[C@H]1C[C@@H]2CC[C@@H](C)[C@@](O)(O2)C(=O)C(=O)N2CCCC[C@H]2C(=O)O[C@H]([C@H](C)C[C@@H]2CC[C@@H](OP(C)(C)=O)[C@H](OC)C2)CC(=O)[C@H](C)/C=C(\C)[C@@H](O)[C@@H](OC)C(=O)[C@H](C)C[C@H](C)/C=C/C=C/C=C/1C [Ridaforolimus]	0.97 ± 0.051	0.889 ± 0.031	0.664 ± 0.016	0.602 ± 0.03	0.538 ± 0.018	0.509 ± 0.025	0.487 ± 0.03	0.459 ± 0.0073	0.48 ± 0.014	0.458 ± 0.026	0.45 ± 0.0084
COCc1c(-c2cc3cc(C)cc(OC)c3s2)c2c(N)ncnn2c1CN1CCNC(=O)C1 [Rogaratinib]	1.074 ± 0.0046	1.07 ± 0.037	1.05 ± 0.036	1.05 ± 0.021	1.06 ± 0.021	1.03 ± 0.042	1.04 ± 0.081	1.02 ± 0.075	1.02 ± 0.063	0.908 ± 0.087	0.568 ± 0.031
